Test results taken from patent US20090208583A1, “TABLETS COMPRISING CANDESARTAN CILEXETIL” (Siegfried Generics International AG, priority 2006, published 2009).
Where a name gives a salt, the structure may show the parent alone.

Key:
[1] = Storage stability of Example 1 tablets, contamination profile (HPLC peak area); details: for result with further compounds having a stabilizing action (in words): used instead of triethyl citrate and simethicone, analogously to the preceding examples
[2] = Storage stability of tablets of Examples 2 to 5, amended HPLC method; type: physicochemical; details: tablets of Examples 2 to 5, 50° C., 2 weeks
Description: Example 1 was repeated, but with the compounds and concentrations stated in Table 2. Triethyl citrate was applied to a mixture of the active compound, lactose and maize starch, the mixture was granulated with an aqueous solution of hydroxypropylcellulose, the granules were worked up with the additives listed in Table 2 to give the finished end mixture and this mixture was pressed to tablets with a rotary tablet press (Fette P1). Tablets with two different pressing pressures, or two different hardnesses (50 N and 80 N) were prepared and were stored in open brown glass containers at 50° C. for at least two weeks. At the same time, the end mixture which had not been subjected to pressure was stored at 4° C. in closed brown glass containers for the same period of time as a reference sample for comparison.
The tablets from Examples […], 3, 4 and 5 were investigated with an amended HPLC method, which led to other retention times. In this, the peaks correspond to the following compounds:
Peak at 1.7-1.8 min=desethyl-candesartan cilexetil Peak at 3.8-3.9 min=candesartan cilexetil Peak at 9.1-9.2 min=N-ethyl-candesartan cilexetil

Row | result with further compounds having a stabilizing action (in words) [1] | stabilizing action (in words) [2] | stabilizing action for candesartan cilexetil tablets during storage (in words) ([1]; Example 1 tablets, 50° C., two weeks) | SMILES
1 | Analogous results | – | – | CCCCOC(=O)CCCCCCCCC(=O)OCCCC [dibutyl sebacate]
2 | Analogous results | – | – | CCCCOC(=O)CC(O)(CC(=O)OCCCC)C(=O)OCCCC [tributyl citrate]
3 | – | stabilizing action | stabilizing action | CCOC(=O)CC(O)(CC(=O)OCC)C(=O)OCC [triethyl citrate]
4 | Analogous results | – | – | COC(=O)CC(O)(CC(=O)OC)C(=O)OC [trimethyl citrate]

Row | SMILES | result with further compounds having a stabilizing action (in words) [1] | stabilizing action (in words) [2] | stabilizing action for candesartan cilexetil tablets during storage (in words) ([1]; Example 1 tablets, 50° C., two weeks)
5 | CCOC(=O)c1ccccc1C(=O)OCC [diethyl phthalate] | Analogous results | – | –
6 | COC(=O)c1ccccc1C(=O)OC [dimethyl phthalate] | Analogous results | – | –
